Test results taken from patent US20250206757A1 (GASHERBRUM BIO, INC., priority 2022, published 2025).

Biological target: GLP-1 Receptor (Homo sapiens, UniProt P43220)
Experiment: GLP-1R agonist cAMP stimulation assay (HEK293/GLP1R/CRE-LUC cells, HTRF cAMP dynamic 2 kit)
Type: cell-based
Details: HEK293/CRE-Luc cell line stably expressing the GLP-1 Receptor; 30 min incubation at 37° C.
Protocol: Activation of GLP-1 receptor is known to stimulate cyclic AMP (cAMP) production in cells which indicates primary coupling to the Gas subunit of the G protein heterotrimeric complex.
To optimize functional activity directed toward Gas coupling, a HEK293/CRE-Luc cell line developed by HDB stably expressing the GLP-1 Receptor was used. 200× concentration of compound working solutions were prepared (Agilent Technologies Bravo) with 1/2 log serial dilution in 384-well Echo LDV plate (Labcyte, Cat #LP-0200). 50 nL/well 200× concentration of compound working solutions were moved to 384-well white low volume plate (Greiner, Cat #784075) using Labcyte ECHO550. 1×10^5 cells/mL HEK293/GLP1R/CRE-LUC (HD Biosciences) cell suspensions prepared with assay buffer [DPBS containing 0.5 mM IBMX (Sigma, Cat #15879) and 0.10% BSA (GENVIEW, Cat #FA016-100g)], 10 μL cell suspensions were added to each well of previous generated assay plate which already contains 50 nL compound at 200× concentration using ThermoFisher Multidrop Combi (1000 cells/well). Seal the plate and incubate at 37° C. with 5% CO2 for 30 min.
After incubation the cAMP assay signal was generated using cAMP dynamic 2 Kit (Cisbio). 5 μL cAMP-d2 working solution was added to each well, followed with 5 μL Anti-cAMP antibody-cryptate working solution added to each well using ThermoFisher Multidrop Combi. Incubate at room temperature for 1 hour protected from light. Read the fluorescence at 665 and 615 nm with Reader PerkinElmer EnVision.

Chain of GLP-1 Receptor (P43220 24-463): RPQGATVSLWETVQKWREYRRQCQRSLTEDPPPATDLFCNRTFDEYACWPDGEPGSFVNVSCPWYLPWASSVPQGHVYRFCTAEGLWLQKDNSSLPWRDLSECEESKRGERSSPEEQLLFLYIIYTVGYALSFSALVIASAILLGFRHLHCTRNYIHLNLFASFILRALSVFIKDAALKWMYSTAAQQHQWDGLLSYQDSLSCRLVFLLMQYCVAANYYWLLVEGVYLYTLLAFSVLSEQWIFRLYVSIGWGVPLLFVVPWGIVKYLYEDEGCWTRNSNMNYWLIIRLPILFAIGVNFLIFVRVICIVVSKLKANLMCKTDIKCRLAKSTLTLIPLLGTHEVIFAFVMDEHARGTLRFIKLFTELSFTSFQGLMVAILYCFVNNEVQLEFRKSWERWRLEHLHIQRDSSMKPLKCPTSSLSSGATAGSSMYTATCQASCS

For `O=C(NCC(F)(F)F)c1ccc2c(nc(CN3CCc4cc(C(F)(F)F)c(OCc5ccc(Cl)cc5F)nc4C3)n2C[C@@H]2CCO2)c1F` [Compound 21, 2-({2-[(4-chloro-2-fluorophenyl)methoxy]-3-(trifluoromethyl)-5,6,7,8-tetrahydro-1,7-naphthyridin-7-yl}methyl)-4-fluoro-1-{[(2S)-oxetan-2-yl]methyl}-N-(2,2,2-trifluoroethyl)-1H-1,3-benzodiazole-5-carboxamide], which EC50 is on record?
Its EC50 is 1 to 300 nM.

How did the EC50 turn out when `CNC(=O)c1ccc2c(nc(CN3CCc4cc(C(F)(F)F)c(OCc5ccc(Cl)cc5F)nc4C3)n2C[C@@H]2CCO2)c1F` [Compound 22, 2-({2-[(4-chloro-2-fluorophenyl)methoxy]-3-(trifluoromethyl)-5,6,7,8-tetrahydro-1,7-naphthyridin-7-yl}methyl)-4-fluoro-N-methyl-1-{[(2S)-oxetan-2-yl]methyl}-1H-1,3-benzodiazole-5-carboxamide] was run?
The EC50 was 1 to 300 nM.

How did the EC50 turn out when `O=C(NCC(F)(F)F)c1cc2nc(CN3CCc4cc(C(F)(F)F)c(OCc5ccc(Cl)cc5F)nc4C3)n(C[C@@H]3CCO3)c2cn1` [Compound 23, 2-({2-[(4-chloro-2-fluorophenyl)methoxy]-3-(trifluoromethyl)-5,6,7,8-tetrahydro-1,7-naphthyridin-7-yl}methyl)-3-{[(2S)-oxetan-2-yl]methyl}-N-(2,2,2-trifluoroethyl)-3H-imidazo[4,5-c]pyridine-6-carboxamide] was run?
The EC50 was 1 to 300 nM.

`CNC(=O)c1cc2nc(CN3CCc4cc(C(F)(F)F)c(OCc5ccc(Cl)cc5F)nc4C3)n(C[C@@H]3CCO3)c2cn1` [Compound 24, 2-({2-[(4-chloro-2-fluorophenyl)methoxy]-3-(trifluoromethyl)-5,6,7,8-tetrahydro-1,7-naphthyridin-7-yl}methyl)-N-methyl-3-{[(2S)-oxetan-2-yl]methyl}-3H-imidazo[4,5-c]pyridine-6-carboxamide] was tested. Which EC50 did it give?
Its EC50 is 1 to 300 nM.

With `O=C(O)c1ccc2c(n1)nc(CN1CCc3cc(C(F)(F)F)c(OCc4ccc(Cl)cc4F)nc3C1)n2C[C@@H]1CCO1` [Compound 25, 2-({2-[(4-chloro-2-fluorophenyl)methoxy]-3-(trifluoromethyl)-5,6,7,8-tetrahydro-1,7-naphthyridin-7-yl}methyl)-1-{[(2S)-oxetan-2-yl]methyl}-1H-imidazo[4,5-b]pyridine-5-carboxylic acid] as the molecule, how does the EC50 read?
Its EC50 is 1 to 300 nM.

With `O=C(O)c1cc2nc(CN3CCc4cc(C(F)(F)F)c(OCc5ccc(Cl)cc5F)nc4C3)n(C[C@@H]3CCO3)c2cn1` [Compound 26, 2-({2-[(4-chloro-2-fluorophenyl)methoxy]-3-(trifluoromethyl)-5,6,7,8-tetrahydro-1,7-naphthyridin-7-yl}methyl)-3-{[(2S)-oxetan-2-yl]methyl}-3H-imidazo[4,5-c]pyridine-6-carboxylic acid] as the molecule, how does the EC50 read?
The EC50 was < 1 nM.

With `O=C(O)c1ccc2c(nc(CN3CCc4cc(C(F)(F)F)c(OCc5ccc(Cl)cc5F)nc4C3)n2C[C@@H]2CCO2)c1F` [Compound 27, 2-({2-[(4-chloro-2-fluorophenyl)methoxy]-3-(trifluoromethyl)-5,6,7,8-tetrahydro-1,7-naphthyridin-7-yl}methyl)-4-fluoro-1-{[(2S)-oxetan-2-yl]methyl}-1H-1,3-benzodiazole-5-carboxylic acid] as the molecule, how does the EC50 read?
Its EC50 is 1 to 300 nM.

How did the EC50 turn out when `O=C(O)c1ccc2c(c1)nc(CN1CCc3cc(C(F)(F)F)c(OCc4ccc(Cl)cc4F)nc3C1)n2C[C@@H]1CCO1` [Compound 28, 2-({2-[(4-chloro-2-fluorophenyl)methoxy]-3-(trifluoromethyl)-5,6,7,8-tetrahydro-1,7-naphthyridin-7-yl}methyl)-1-{[(2S)-oxetan-2-yl]methyl}-1H-1,3-benzodiazole-5-carboxylic acid] was run?
Its EC50 is < 1 nM.

`O=c1[nH]c(-c2cnc3c(c2)nc(CN2CCc4cc(C(F)(F)F)c(OCc5ccc(Cl)cc5F)nc4C2)n3C[C@@H]2CCO2)no1` [Compound 29, 3-[2-({2-[(4-chloro-2-fluorophenyl)methoxy]-3-(trifluoromethyl)-5,6,7,8-tetrahydro-1,7-naphthyridin-7-yl}methyl)-3-{[(2S)-oxetan-2-yl]methyl}-3H-imidazo[4,5-b]pyridin-6-yl]-4,5-dihydro-1,2,4-oxadiazol-5-one] was tested. Which EC50 did it give?
Its EC50 is < 1 nM.

For `O=c1[nH]c(-c2cnc3c(c2)nc(CN2CCc4cc(C(F)(F)F)c(OCc5c(F)cc(Cl)cc5F)nc4C2)n3C[C@@H]2CCO2)no1` [Compound 30, 3-[2-({2-[(4-chloro-2,6-difluorophenyl)methoxy]-3-(trifluoromethyl)-5,6,7,8-tetrahydro-1,7-naphthyridin-7-yl}methyl)-3-{[(2S)-oxetan-2-yl]methyl}-3H-imidazo[4,5-b]pyridin-6-yl]-4,5-dihydro-1,2,4-oxadiazol-5-one], which EC50 is on record?
The EC50 was < 1 nM.

With `O=c1[nH]c(-c2cc3nc(CN4CCc5cc(C(F)(F)F)c(OCc6ccc(Cl)cc6)nc5C4)n(C[C@@H]4CCO4)c3cn2)no1` [Compound 31, 3-[2-({2-[(4-chlorophenyl)methoxy]-3-(trifluoromethyl)-5,6,7,8-tetrahydro-1,7-naphthyridin-7-yl}methyl)-3-{[(2S)-oxetan-2-yl]methyl}-3H-imidazo[4,5-c]pyridin-6-yl]-4,5-dihydro-1,2,4-oxadiazol-5-one] as the molecule, how does the EC50 read?
The EC50 was < 1 nM.

With `O=c1[nH]c(-c2cc3nc(CN4CCc5cc(C(F)(F)F)c(OCc6c(F)cc(Cl)cc6F)nc5C4)n(C[C@@H]4CCO4)c3cn2)no1` [Compound 32, 3-[2-({2-[(4-chloro-2,6-difluorophenyl)methoxy]-3-(trifluoromethyl)-5,6,7,8-tetrahydro-1,7-naphthyridin-7-yl}methyl)-3-{1[(2S)-oxetan-2-yl]methyl}-3H-imidazo[4,5-c]pyridin-6-yl]-4,5-dihydro-1,2,4-oxadiazol-5-one] as the molecule, how does the EC50 read?
Its EC50 is < 1 nM.

How did the EC50 turn out when `Cc1ccc(COc2nc3c(cc2C(F)(F)F)CCN(Cc2nc4cc(-c5noc(=O)[nH]5)ncc4n2C[C@@H]2CCO2)C3)c(Cl)c1` [Compound 33, 3-[2-({2-[(2-chloro-4-methylphenyl)methoxy]-3-(trifluoromethyl)-5,6,7,8-tetrahydro-1,7-naphthyridin-7-yl}methyl)-3-{1[(2S)-oxetan-2-yl]methyl}-3H-imidazo[4,5-c]pyridin-6-yl]-4,5-dihydro-1,2,4-oxadiazol-5-one] was run?
Its EC50 is < 1 nM.

Which EC50 does the source give for `Cc1cc2c(nc1OCc1c(F)cc(Cl)cc1F)CN(Cc1nc3cc(-c4noc(=O)[nH]4)ncc3n1C[C@@H]1CCO1)CC2` [Compound 34, 3-[2-({2-[(4-chloro-2,6-difluorophenyl)methoxy]-3-methyl-5,6,7,8-tetrahydro-1,7-naphthyridin-7-yl}methyl)-3-{[(2S)-oxetan-2-yl]methyl}-3H-imidazo[4,5-c]pyridin-6-yl]-4,5-dihydro-1,2,4-oxadiazol-5-one] here?
The EC50 was < 1 nM.

Which EC50 does the source give for `Cc1cc2c(nc1NCc1c(F)cc(Cl)cc1F)CN(Cc1nc3cc(-c4noc(=O)[nH]4)ncc3n1C[C@@H]1CCO1)CC2` [Compound 35, 3-{2-[(2-{[(4-chloro-2,6-difluorophenyl)methyl]amino}-3-methyl-5,6,7,8-tetrahydro-1,7-naphthyridin-7-yl)methyl]-3-{[(2S)-oxetan-2-yl]methyl}-3H-imidazo[4,5-c]pyridin-6-yl}-4,5-dihydro-1,2,4-oxadiazol-5-one] here?
The EC50 was < 1 nM.

How did the EC50 turn out when `O=c1[nH]c(-c2ccc3c(c2)nc(CN2CCc4cc(C(F)(F)F)c(OCc5ccc(Cl)cc5F)nc4C2)n3C[C@@H]2CCO2)no1` [Compound 36, 3-[2-({2-[(4-chloro-2-fluorophenyl)methoxy]-3-(trifluoromethyl)-5,6,7,8-tetrahydro-1,7-naphthyridin-7-yl}methyl)-1-{1[(2S)-oxetan-2-yl]methyl}-1H-1,3-benzodiazol-5-yl]-4,5-dihydro-1,2,4-oxadiazol-5-one] was run?
The EC50 was < 1 nM.

For `Cc1cc2c(nc1OCc1c(F)cc(Cl)cc1F)CN(Cc1nc3cc(-c4noc(=O)[nH]4)ccc3n1C[C@@H]1CCO1)CC2` [Compound 37, 3-[2-({2-[(4-chloro-2,6-difluorophenyl)methoxy]-3-methyl-5,6,7,8-tetrahydro-1,7-naphthyridin-7-yl}methyl)-1-{[(2S)-oxetan-2-yl]methyl}-1H-1,3-benzodiazol-5-yl]-4,5-dihydro-1,2,4-oxadiazol-5-one], which EC50 is on record?
Its EC50 is < 1 nM.

`O=c1[nH]c(-c2cc3nc(CN4CCc5cc(C(F)(F)F)c(OCc6ccc(Cl)cc6F)nc5C4)n(C[C@@H]4CCO4)c3cc2F)no1` [Compound 38, 3-[2-({2-[(4-chloro-2-fluorophenyl)methoxy]-3-(trifluoromethyl)-5,6,7,8-tetrahydro-1,7-naphthyridin-7-yl}methyl)-6-fluoro-1-{[(2S)-oxetan-2-yl]methyl}-1H-1,3-benzodiazol-5-yl]-4,5-dihydro-1,2,4-oxadiazol-5-one] was tested. Which EC50 did it give?
Its EC50 is 1 to 300 nM.

Which EC50 does the source give for `Fc1cc(Cl)cc(F)c1COc1nc2c(cc1C(F)(F)F)CCN(Cc1nc3cc(-c4nnc(C(F)(F)F)[nH]4)nnc3n1C[C@@H]1CCO1)C2` [Compound 39, 2-[(4-chloro-2,6-difluorophenyl)methoxy]-7-[(7-{[(2S)-oxetan-2-yl]methyl}-3-[5-(trifluoromethyl)-4H-1,2,4-triazol-3-yl]-7H-imidazo[4,5-c]pyridazin-6-yl)methyl]-3-(trifluoromethyl)-5,6,7,8-tetrahydro-1,7-naphthyridine] here?
Its EC50 is < 1 nM.
